Data reported in patent EP0090204A1, “Optically active levorotatory derivatives of phenoxy-benzoic acid, method for their preparation and their use as herbicides” (BAYER AG, priority 1982, dated 1983).

Columns and labels:
Type in all cases: in vivo
Rüben [1] = assay: Post-emergence test; settings: % damage vs untreated control after three weeks
Text: (§1) Zur Herstellung einer zweckmäßigen Wirkstoffzubereitung vermischt man 1 Gewichtsteil Wirkstoff mit der angegebenen Menge Lösungsmittel, gibt die angegebene Menge Emulgator zu und verdünnt das Konzentrat mit Wasser auf die gewünschte Konzentration.
(§2) Mit der Wirkstoffzubereitung spritzt man Testpflanzen, welche eine Höhe von 5 - 15 cm haben so, daß die jeweils gewünschten Wirkstoffmengen pro Flächeneinheit ausgebracht werden. Die Konzentration der Spritzbrühe wird so gewählt, daß in 2000 1 Wasser/ha die jeweils gewünschten Wirkstoffmengen ausgebracht werden. Nach drei Wochen wird der Schädigungsgrad der Pflanzen bonitiert in % Schädigung im Vergleich zur Entwicklung der unbehandelten Kontrolle.

Soja [2] = assay: Post-emergence test; settings: % damage vs untreated control after three weeks
Text: as §1, §2

Mais [3] = assay: Post-emergence test; settings: % damage vs untreated control after three weeks
Text: as §1, §2

Monocotyledoneae [4] = assay: Post-emergence test; settings: % damage vs untreated control after three weeks, average effect on several monocots
Text: as §1, §2

Dicotyledoneae [5] = assay: Post-emergence test; settings: % damage vs untreated control after three weeks, average effect on several dicots
Text: as §1, §2

Rüben [6] = assay: Pre-emergence test; settings: % damage vs untreated control after three weeks
Text: as §1
(§3) Samen der Testpflanzen werden in normalen Boden ausgesät und nach 24 Stunden mit der Wirkstoffzubereitung begossen. Dabei hält man die Wassermenge pro Flächeneinheit zweckmäßigerweise konstant. Die Wirkstoffkonzentration in der Zubereitung spielt keine Rolle, entscheidend ist nur die Aufwandmenge des Wirkstoffs pro Flächeneinheit. Nach drei Wochen wird der Schädigungsgrad der Pflanzen bonitiert in % Schädigung im Vergleich zur Entwicklung der unbehandelten Kontrolle.

Soja [7] = assay: Pre-emergence test; settings: % damage vs untreated control after three weeks
Text: as §1, §3

Mais [8] = assay: Pre-emergence test; settings: % damage vs untreated control after three weeks
Text: as §1, §3

Monocotyledoneae [9] = assay: Pre-emergence test; settings: % damage vs untreated control after three weeks, average effect on several monocots
Text: as §1, §3

Dicotyledoneae [10] = assay: Pre-emergence test; settings: % damage vs untreated control after three weeks, average effect on several dicots
Text: as §1, §3

Testpflanzen [11] = assay: Post-emergence test, overall comparison; settings: compared with the corresponding racemic compounds (A) and (B)
Text: as §1, §2

Testpflanzen [12] = assay: Pre-emergence test, overall comparison; settings: compared with the corresponding racemic compounds (A) and (B)
Text: as §1, §3

CCOC(=O)[C@@H](C)OC(=O)c1cc(Oc2c(Cl)cc(C(F)(F)F)cc2Cl)ccc1[N+](=O)[O-] [(1), 5-(2,6-Dichlor-4-trifluormethyl-phenoxy)-2-nitro-benzoesäure-(1-ethoxycarbonylethyl)-esters]
Wirkung (in %) Rüben (Rüben [1]; 0,6 kg/ha): 100% | Wirkung (in %) Soja (Soja [2]; 0,6 kg/ha): 100% | Wirkung (in %) Mais (Mais [3]; 0,6 kg/ha): 80% | Wirkung (in %) Monocotyledoneae (Monocotyledoneae [4]; 0,6 kg/ha): 81,1% | Wirkung (in %) Dicotyledoneae (Dicotyledoneae [5]; 0,6 kg/ha): 99,3% | Wirkung (in %) Rüben (Rüben [6]; 0,6 kg/ha): 100% | Wirkung (in %) Soja (Soja [7]; 0,6 kg/ha): 10% | Wirkung (in %) Mais (Mais [8]; 0,6 kg/ha): 10% | Wirkung (in %) Monocotyledoneae (Monocotyledoneae [9]; 0,6 kg/ha): 79,3% | Wirkung (in %) Dicotyledoneae (Dicotyledoneae [10]; 0,6 kg/ha): 92,7% | herbizide Wirksamkeit (Testpflanzen [11]): bessere herbizide Wirksamkeit | herbizide Wirksamkeit (Testpflanzen [12]): bessere herbizide Wirksamkeit

CCOC(=O)[C@@H](C)OC(=O)c1cc(Oc2ccc(C(F)(F)F)cc2Cl)ccc1[N+](=O)[O-] [(2), 5-(2-Chlor-4-trifluormethyl-phenoxy)-2-nitro-benzoesäure-(1-ethoxycarbonyl-ethyl)-esters]
Wirkung (in %) Rüben (Rüben [1]; 0,75 kg/ha): 100% | Wirkung (in %) Soja (Soja [2]; 0,75 kg/ha): 99% | Wirkung (in %) Mais (Mais [3]; 0,75 kg/ha): 99% | Wirkung (in %) Monocotyledoneae (Monocotyledoneae [4]; 0,75 kg/ha): 86,3% | Wirkung (in %) Dicotyledoneae (Dicotyledoneae [5]; 0,75 kg/ha): 99,3% | Wirkung (in %) Rüben (Rüben [6]; 0,75 kg/ha): 99% | Wirkung (in %) Soja (Soja [7]; 0,75 kg/ha): 0% | Wirkung (in %) Mais (Mais [8]; 0,75 kg/ha): 0% | Wirkung (in %) Monocotyledoneae (Monocotyledoneae [9]; 0,75 kg/ha): 80,7% | Wirkung (in %) Dicotyledoneae (Dicotyledoneae [10]; 0,75 kg/ha): 74,3% | herbizide Wirksamkeit (Testpflanzen [11]): bessere herbizide Wirksamkeit | herbizide Wirksamkeit (Testpflanzen [12]): bessere herbizide Wirksamkeit
